Reference: US20050124625A1, “Piperazine derivatives and their use as modulators of nuclear hormone receptor function” (priority 2003, published 2005)

Tests used:
[1] = test system: immature castrated rats, ventral prostate (VP) and seminal vesicles (SV); experiment: Wet prostate weight assay, AR antagonist assay; type: in vivo, rat; settings: for EC50 (organ weight increase): immature castrated rats
Source text: Biol. Med., 83, 175 (1953); P. C.
The basis of this assay is the fact that male sexual accessory organs, such as the prostate and seminal vesicles, play an important role in reproductive function. These glands are stimulated to grow and are maintained in size and secretory function by the continued presence of serum testosterone (T), which is the major serum androgen (>95%) produced by the Leydig cells in the testis under the control of the pituitary luteinizing hormone (LH) and follicle stimulating hormone (FSH). […] Adrenal androgens also contribute about 20% of total DHT in the rat prostate, compared to 40% of that in 65-year-old men. F. Labrie et al. Clin. Invest. Med., 16, 475-492 (1993). However, this is not a major pathway, since in both animals and humans, castration leads to almost complete involution of the prostate and seminal vesicles without concomitant adrenalectomy. […] […] […] Since the male sex organs are the tissues most responsive to modulation of the androgen activity, this model is used to determine the androgen dependent growth of the sex accessory organs in immature castrated rats.
Five days after surgery these castrated rats (60-70 g, 23-25 day-old) are dosed for 3 days. […] Animals are dosed (v/w) at 0.5 ml of vehicle/100 g body weight. […] Control vehicle • 2.
At the end of the 3-day treatment, the animals are sacrificed, and the ventral prostate weighed. To compare data from different experiments, the sexual organs weights are first standardized as mg per 100 g of body weight, and the increase in organ weight induced by TP was considered as the maximum increase (100%). ANOVA followed by one-tailed Student or Fischer's exact test is used for statistical analysis.
The gain and loss of sexual organ weight reflect the changes of the cell number (DNA content) and cell mass (protein content), depending upon the serum androgen concentration. See Y. Okuda et al., J. Urol., 145, 188-191 (1991), the disclosure of which is herein incorporated by reference. Therefore, measurement of organ wet weight is sufficient to indicate the bioactivity of androgens and androgen antagonist.

[2] = test system: castrated rats, levator ani, seminal vesicles (SV) and prostate; experiment: Levator ani & wet prostate weight assay, AR agonist assay; type: in vivo, rat; settings: for EC50 (organ weight increase): castrated rats
Source text: The activity of compounds of the present invention as AR agonists is investigated in an immature male rat model, a recognized test of anabolic effects in muscle and sustaining effects in sex organs for a given compound, as described in L. G. Hershberger et al., Proc. Soc. Expt. Biol. Med., 83, 175 (1953); B. L. Beyler et al, “Methods for evaluating anabolic and catabolic agents in laboratory animals”, J. Amer. Med. Women's Ass., 23, 708 (1968); H. Fukuda et al., “Investigations of the levator ani muscle as an anabolic steroid assay”, Nago Dai. Yak. Ken. Nem. 14, 84 (1966) the disclosures of which are herein incorporated by reference.
The basis of this assay lies in the well-defined action of androgenic agents on the maintenance and growth of muscle tissues and sexual accessory organs in animals and man. Androgenic steroids, such as testosterone (T), have been well characterized for their ability to maintain muscle mass. Treatment of animals or humans after castrations with an exogenous source of T results in a reversal of muscular atrophy. The effects of T on muscular atrophy in the rat levator ani muscle have been well characterized. M. Masuoka et al., “Constant cell population in normal, testosterone deprived and testosterone stimulated levator ani muscles” Am. J. Anat. 119, 263 (1966); Z. Gori et al., “Testosterone hypertrophy of levator ani muscle of castrated rats. I. Quantitative data” Boll.-Soc. Ital. Biol. Sper. 42, 1596 (1966); Z. Gori et al., “Testosterone hypertrophy of levator ani muscle of castrated rats. II. Electron-microscopic observations” Boll.-Soc. Ital. Biol. Sper. 42, 1600 (1966); A. Boris et al., Steroids 15, 61 (1970). As described above, the effects of androgens on maintenance of male sexual accessory organs, such as the prostate and seminal vesicles, is well described. Castration results in rapid involution and atrophy of the prostate and seminal vesicles. This effect can be reversed by exogenous addition of androgens. […]

[3] = biological target: endogenous glucocorticoid receptor (Homo sapiens, UniProt P04150); settings: concentration of ≦10 μM; 10 ng/ml PMA; A549 cells
endogenous glucocorticoid receptor, sequence (P04150 whole entry): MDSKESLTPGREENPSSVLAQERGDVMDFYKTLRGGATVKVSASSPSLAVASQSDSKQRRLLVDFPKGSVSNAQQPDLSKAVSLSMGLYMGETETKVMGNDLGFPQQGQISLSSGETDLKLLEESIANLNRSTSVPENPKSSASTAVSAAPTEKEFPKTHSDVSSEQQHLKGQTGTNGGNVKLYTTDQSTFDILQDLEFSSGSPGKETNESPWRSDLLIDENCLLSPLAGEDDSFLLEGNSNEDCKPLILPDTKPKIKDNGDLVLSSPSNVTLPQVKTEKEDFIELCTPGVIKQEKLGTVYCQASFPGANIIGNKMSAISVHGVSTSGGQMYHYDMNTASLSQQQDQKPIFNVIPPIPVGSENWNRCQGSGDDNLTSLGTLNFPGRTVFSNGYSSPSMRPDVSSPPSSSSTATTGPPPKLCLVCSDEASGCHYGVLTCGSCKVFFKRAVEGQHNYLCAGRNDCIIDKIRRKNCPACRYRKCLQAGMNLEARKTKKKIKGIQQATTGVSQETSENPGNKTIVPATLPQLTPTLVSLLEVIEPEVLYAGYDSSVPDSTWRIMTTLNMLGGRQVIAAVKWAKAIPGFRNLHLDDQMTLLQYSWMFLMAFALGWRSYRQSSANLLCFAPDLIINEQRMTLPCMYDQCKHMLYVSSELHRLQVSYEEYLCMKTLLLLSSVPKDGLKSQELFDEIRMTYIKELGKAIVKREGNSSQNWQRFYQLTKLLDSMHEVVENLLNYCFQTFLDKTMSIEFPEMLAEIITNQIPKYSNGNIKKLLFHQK
Experimental: Cells are plated the day before the assay at approximately 40000 cells/well. […] Activity is measured by analysis in a luminometer as compared to control experiments treated with buffer or dexamethasome.

| Structure (SMILES) | EC50 (organ weight increase) [1] | EC50 (organ weight increase) [2] | ED80 ([1]; immature castrated rat model) | potency higher than free T ([1]; rat, in vivo) | potency higher than free T ([2]; rat, in vivo) | suppression of activity (% inhibition of the reporter system vs buffer control with PMA) [3] |
| --- | --- | --- | --- | --- | --- | --- |
| C[C@]12CC[C@H]3[C@@H](CCC4=CC(=O)CC[C@@]43C)[C@@H]1CC[C@@H]2O [T, testosterone] | about 1 mg | about 1 mg | – | – | – | – |
| CCC(=O)O[C@H]1CC[C@H]2[C@@H]3CCC4=CC(=O)CC[C@]4(C)[C@H]3CC[C@]12C [TP, testosterone propionate] | ~0.03 mg | ~0.03 mg | 0.1 mg | 10-30 fold | 10-30 fold | – |
| C[C@@H]1C[C@H]2[C@@H]3CCC4=CC(=O)C=C[C@]4(C)[C@@]3(F)[C@@H](O)C[C@]2(C)[C@@]1(O)C(=O)CO [dexamethasone] | – | – | – | – | – | 65% |
